Test results: article PMC9203742 (Nature Communications, 2022)
“And” between values parts separate entries of the source, which are not always exact repeats. Equal entries are not always repeated.

Assays:
PC12 cells [1] = assay: NGF-induced neurite outgrowth in differentiated PC12 cells; type: cell-based; parameters: neurite outgrowth, individual values #1-#20 (Fig.4b): unit not given here; conditions: [Pd(bpy)] 100 µM; differentiated PC12 cells
Procedure: After incubation for 3 days, PC12 cells bearing neurites were randomly selected, and the length of the longest neurite in each cell was measured using ImageJ package Fiji.

[2] = system: HEK293 cells, vector control; assay: Fura-2 Ca2+ imaging in HEK293 cells transfected with control vector (Vec); type: cell-based; conditions: single-cell values #1-#20
[3] = system: mGlu1 construct not given; assay: Fura-2 Ca2+ imaging in HEK293 cells, source data Suppl Fig1, left group (c0-c8); construct not given; type: cell-based, rat; conditions: single-cell values, cells #15-#20; left group of third block
From the text: (§1) Supplement 41467_2022_30828_MOESM6_ESM.zip/Ojima et al_source data_Suppl Fig.xlsx, sheet "Suppl Fig1" | column: Glu; NiCl2; CuCl2; ZnCl2; CdCl2; Na2PdCl2; Pd(bpy)

mGlu1 A59H/A265H mutant = target: T1, mGlu1 A59H/A265H mutant (Rattus norvegicus, UniProt P23385, A265H/A59H); assay: Fura-2 Ca2+ imaging in HEK293 cells expressing mGlu1 A59H/A265H; type: cell-based; conditions: single-cell values
T1 construct: expressed in transfected cells; host or cells: HEK293

[4] = system: mGlu1 construct not given; assay: Fura-2 Ca2+ imaging in HEK293 cells, source data Suppl Fig1, middle group (c9-c17); construct not given; type: cell-based, rat; conditions: single-cell values, cells #15-#20; middle group of third block
From the text: as §1

mGlu1 A59H/G266H mutant = target: T2, mGlu1 A59H/G266H mutant (Rattus norvegicus, UniProt P23385, A59H/G266H); assay: Fura-2 Ca2+ imaging in HEK293 cells expressing mGlu1 A59H/G266H; type: cell-based; conditions: single-cell values
T2 construct: expressed in transfected cells; host or cells: HEK293

[5] = system: mGlu1 construct not given; assay: Fura-2 Ca2+ imaging in HEK293 cells, source data Suppl Fig1, right group (c18-c26); construct not given; type: cell-based, rat; conditions: single-cell values, cells #15-#20; right group of third block
From the text: as §1

PC12 cells [6] = assay: Cell proliferation assay of undifferentiated PC12 cells; conditions: for cell proliferation, Ave (Fig.4c): average of #1-#3
primary cortical neurons = assay: Fura-2 Ca2+ imaging (abnormal Ca2+ response) in cultured cortical neurons

T1 sequence (P23385 19-1199 A59H/A265H): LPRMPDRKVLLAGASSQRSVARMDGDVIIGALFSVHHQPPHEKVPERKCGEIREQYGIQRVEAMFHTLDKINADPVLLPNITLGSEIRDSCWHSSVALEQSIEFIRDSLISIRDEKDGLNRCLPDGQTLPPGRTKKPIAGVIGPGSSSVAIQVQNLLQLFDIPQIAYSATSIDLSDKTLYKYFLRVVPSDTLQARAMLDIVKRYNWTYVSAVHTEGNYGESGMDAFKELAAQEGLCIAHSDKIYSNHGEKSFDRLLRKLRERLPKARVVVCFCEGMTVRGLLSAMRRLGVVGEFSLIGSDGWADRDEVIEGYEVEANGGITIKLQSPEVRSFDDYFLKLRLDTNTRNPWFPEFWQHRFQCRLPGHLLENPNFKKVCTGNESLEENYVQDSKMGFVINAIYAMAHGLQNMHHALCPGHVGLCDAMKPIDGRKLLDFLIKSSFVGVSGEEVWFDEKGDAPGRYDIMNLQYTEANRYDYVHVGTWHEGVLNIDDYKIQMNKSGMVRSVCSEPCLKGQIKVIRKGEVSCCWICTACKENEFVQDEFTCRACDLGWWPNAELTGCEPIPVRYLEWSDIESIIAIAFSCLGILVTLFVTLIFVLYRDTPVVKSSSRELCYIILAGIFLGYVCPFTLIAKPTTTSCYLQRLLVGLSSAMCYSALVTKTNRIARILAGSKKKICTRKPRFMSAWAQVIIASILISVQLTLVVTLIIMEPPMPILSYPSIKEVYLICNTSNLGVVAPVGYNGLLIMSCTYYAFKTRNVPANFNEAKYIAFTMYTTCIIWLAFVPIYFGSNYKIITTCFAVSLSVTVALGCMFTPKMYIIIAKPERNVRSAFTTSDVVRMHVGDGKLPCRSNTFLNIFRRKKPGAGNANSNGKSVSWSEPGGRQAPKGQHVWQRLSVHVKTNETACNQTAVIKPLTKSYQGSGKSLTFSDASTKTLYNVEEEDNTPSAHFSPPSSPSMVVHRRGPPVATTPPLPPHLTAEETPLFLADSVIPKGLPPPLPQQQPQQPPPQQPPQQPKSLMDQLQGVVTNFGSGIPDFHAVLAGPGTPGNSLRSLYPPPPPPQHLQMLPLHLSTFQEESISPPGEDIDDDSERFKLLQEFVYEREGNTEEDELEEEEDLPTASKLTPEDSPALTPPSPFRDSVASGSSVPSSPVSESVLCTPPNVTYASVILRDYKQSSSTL
T2 sequence (P23385 19-1199 A59H/G266H): as the sequence (P23385 19-1199 A59H/A265H) above, with H247A, G248H counted along it

## O=[N+]([O-])[O-].O=[N+]([O-])[O-].[Pd+2].c1ccc(-c2ccccn2)nc1 [Pd(bpy), Pd(bpy)(NO3)2]
PC12 cells [1]
  neurite outgrowth, individual values #1-#20 (Fig.4b): 136.698 and 130.77 and 122.681 and 121.338 and 121.125 and 116.924 and 109.267 and 109.255 and 105.042 and 102.225 and 101.456 and 94.5391 and 93.196 and 186.64 and 184.25 and 163.439 and 159.066 and 147.882 and 142.225 and 138.024
[2]
  Ca2+ response of individual cells (source data Suppl Fig1), Vec: -0.004731 and 0.3238 and -0.02602 and 0.02754 and -0.0031 and 0.006285 and -0.02257 and 0.004254 and 0.003354 and -0.004338 and -0.001023 and 0.0058 and -0.01141 and 0.05108 and 0.0005846 and 0.297 and 0.004723 and 0.01628 and 0.03037
[3]
  Ca2+ response of individual cells (source data, sheet Suppl Fig1): 0.505 and 0.8787 and 1.066 and 0.2405 and 0.9566 and 0.7627
mGlu1 A59H/A265H mutant
  Ca2+ response of individual cells (source data Suppl Fig1), A59H/A265H: -0.002885 and -0.009254 and 0.08719 and 0.008869 and -0.009738 and 0.003808 and 0.004285 and 0.02012 and -0.02372 and -0.01536 and -0.009285 and -0.02246 and 0.01085 and 0.1127
[4]
  Ca2+ response of individual cells (source data, sheet Suppl Fig1): 0.04373 and -0.04935 and -0.001077 and -0.04196 and -0.007292 and 0.01256
mGlu1 A59H/G266H mutant
  Ca2+ response of individual cells (source data Suppl Fig1), A59H/G266H: 0.2879 and 0.01529 and 0.1021 and -0.0047 and 0.3807 and 0.03304 and 0.0004923 and 0.02376 and -0.0301 and -0.02225 and 0.0004846 and -0.005677 and 0.7275 and 0.6736
[5]
  Ca2+ response of individual cells (source data, sheet Suppl Fig1): 0.001923 and 0.0116 and 0.02873 and 0.01569 and 0.04602 and 0.003608
PC12 cells [6]; 30 μM
  Cell growth: clearly suppressed
PC12 cells [6]; Pd complex 1 µM
  cell proliferation, single experiments #1-#3 (Fig.4c): 1.5318 and 0.8604 and 0.8836
  cell proliferation, Ave (Fig.4c): 1.092
PC12 cells [6]; Pd complex 3 µM
  cell proliferation, single experiments #1-#3 (Fig.4c): 1.071 and 0.9613 and 0.8889
  cell proliferation, Ave (Fig.4c): 0.9739
PC12 cells [6]; Pd complex 10 µM
  cell proliferation, single experiments #1-#3 (Fig.4c): 1.234 and 0.8888 and 0.7605
  cell proliferation, Ave (Fig.4c): 0.961
PC12 cells [6]; Pd complex 30 µM
  cell proliferation, single experiments #1-#3 (Fig.4c): 0.9447 and 0.7842 and 0.619
  cell proliferation, Ave (Fig.4c): 0.7826
PC12 cells [6]; Pd complex 100 µM
  cell proliferation, Ave (Fig.4c): 0.07957
Primary cortical neurons; 1 µM Pd complex
  abnormal Ca2+ response, ave (Fig.4d): 0.03652
Primary cortical neurons; 3 µM Pd complex
  abnormal Ca2+ response, ave (Fig.4d): -0.0001233
Primary cortical neurons; 10 μM
  [Ca2+]i elevation (abnormal Ca2+ response): gradual [Ca^2+]i elevation was observed
Primary cortical neurons; 10 µM Pd complex
  abnormal Ca2+ response, ave (Fig.4d): 0.1988
Primary cortical neurons; 30 μM
  [Ca2+]i elevation (abnormal Ca2+ response): more prominent
Primary cortical neurons; 30 µM Pd complex
  abnormal Ca2+ response, ave (Fig.4d): 2.468
Primary cortical neurons; 100 µM Pd complex
  abnormal Ca2+ response, ave (Fig.4d): 3.162
Primary cortical neurons; 300 µM Pd complex
  abnormal Ca2+ response, ave (Fig.4d): 3.458
